# Results: patent US7922998B2, “Gastrin releasing peptide compounds” (Bracco Imaging S.p.A., priority 2003, dated 2011)
# “Also recorded” adds a separate entry of the source.
# Tests used:
# NMB-R = target: T1, NMB-R (Rattus norvegicus, UniProt P24053); experiment: Competition with 125I-NMB for NMB-R in C6 cells (Example LX); assay type: binding, rodent; settings: for receptor subtype preference (GRP-R / NMB-R): in words, from IC50 with 125I-NMB (C6) and 125I-BBN (PC3), cut off 10× the IC50 of [Tyr4]-BBN
# T1 construct: C6, an NMB-R expressing rodent glioblastoma cell line; host or cells: C6 glioma cells, intact and plated
# T1 sequence (P24053 1-390): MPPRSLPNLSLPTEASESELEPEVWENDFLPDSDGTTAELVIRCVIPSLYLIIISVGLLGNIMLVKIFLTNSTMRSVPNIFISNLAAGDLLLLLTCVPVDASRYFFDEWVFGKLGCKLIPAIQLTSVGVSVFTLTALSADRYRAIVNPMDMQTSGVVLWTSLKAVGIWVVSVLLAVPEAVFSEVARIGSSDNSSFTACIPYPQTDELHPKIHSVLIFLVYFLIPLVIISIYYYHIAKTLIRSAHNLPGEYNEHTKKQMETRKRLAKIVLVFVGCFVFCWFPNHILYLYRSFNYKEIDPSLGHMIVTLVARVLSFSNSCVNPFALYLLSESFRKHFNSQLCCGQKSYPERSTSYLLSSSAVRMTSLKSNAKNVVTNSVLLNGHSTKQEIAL
# Experimental: Two cell lines, C6, an NMB-R expressing rodent glioblastoma cell line and PC3, a GRP-R expressing human prostate cancer cell line, were used in this assay. The affinity of various unlabeled compounds for each receptor subtype (NMB-R and GRP-R) was determined indirectly by measuring its ability to compete with the binding of ^125I-NMB or ^125I-BBN to its corresponding receptors in C6 and PC3 cells.
# Cells for the assays were plated at a concentration of 9.6×10^4/well in 48 well poly-lysine coated plates (Beckton Dickinson Biocoat).
# • Custom made ^125I-[Tyr^0]NMB, >2.0 Ci/μmole (Amersham Life Science) [^125I-NMB] and commercially available ^125I-[Tyr^4]BBN, >2.0 Ci/μmole (Perkin Elmer Life Science) [^125I-BBN] were used as radioligands.
# • Using a 48-well plate assay system (for C6 study) competition experiments were performed using ^125I-NMB. […] Selection of compounds for the assay was based on linker subtype.
# The binding parameters obtained from the studies were analyzed using a one-site competition non-linear regression analysis with GraphPad Prism. The relative affinity of various compounds for NMB-R in C6 cells were compared with those obtained using commercially available [Tyr^4]-BBN and [Tyr^0]-NMB. To distinguish the GRP-R preferring compounds from NMB-R plus GRP-R preferring compounds, IC50 values obtained for each compound was compared with those obtained from [Tyr^0]-BBN with ^125I-NMB on C6 cells.
# GRP-R = target: T2, GRP-R (Homo sapiens, UniProt P30550); experiment: Competition assay of modified BBN analogs with 125I-BBN for GRP-R in PC3 cells (Example LXI); assay type: binding; settings: in words
# T2 construct: host or cells: PC3 human prostate cancer cells, intact and plated
# T2 sequence (P30550 whole entry): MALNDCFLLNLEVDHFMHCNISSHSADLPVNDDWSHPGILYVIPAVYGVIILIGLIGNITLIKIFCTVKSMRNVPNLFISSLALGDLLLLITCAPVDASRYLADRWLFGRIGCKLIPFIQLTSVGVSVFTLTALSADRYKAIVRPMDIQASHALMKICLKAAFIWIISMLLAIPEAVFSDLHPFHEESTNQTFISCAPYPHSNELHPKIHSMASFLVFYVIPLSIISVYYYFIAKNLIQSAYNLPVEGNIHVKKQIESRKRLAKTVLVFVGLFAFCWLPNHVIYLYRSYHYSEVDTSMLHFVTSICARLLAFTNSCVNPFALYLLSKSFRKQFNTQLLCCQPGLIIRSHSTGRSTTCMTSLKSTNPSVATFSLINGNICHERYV
# Experimental: • PC3 cell lines were obtained from ATCC(CRL-1435) and cultured in RPMI 1640 (ATCC) supplemented with 2 mM L-glutamine, 1.5 g/L Sodium bicarbonate, 10 mM HEPES and 10% FBS. […] PC3 cells for the assays were plated at a concentration of 2.0×10^4 cells/well in a 96-well white/clear bottom plates (Falcon Optilux-I). Plates were used for the assays on day 2 of the post-plating.
# • RPMI 1640 (ATCC) containing 25 mM HEPES, 0.2% BSA fraction V, 1.0 mM AEBSF (CAS #3087-99-7) and 0.1% Bacitracin (CAS #1405-87-4), pH 7.4.
# • ^125I-BBN (Cat # NEX258) was obtained from PerkinElmer Life Sciences.
# • All compounds tested were dissolved in binding buffer and appropriate dilutions were also done in binding buffer. PC3 cells for assay were seeded at a concentration of 2.0×10^4/well either in 96-well black/clear collagen I cellware plates (Beckton Dickinson Biocoat). Plates were used for binding studies on day 2 post-plating. The plates were checked for confluency (>90% confluent) prior to assay. […] The studies were conducted with an assay volume of 75 μl per well. Triplicate wells were used for each data point. After the addition of the appropriate solutions, plates were incubated for 1 hour at 4° C. Incubation was ended by the addition of 200 uL of ice-cold incubation buffer. Plates were washed 5 times and blotted dry. Radioactivity was detected using either a LKB CompuGamma counter or a microplate scintillation counter.
# [1] = system: PC3 tumor-bearing nude mouse model; experiment: Radiotherapy Short Term Efficacy Study; assay type: in vivo
# Experimental: • Radiotherapy studies were performed using the PC3 tumor-bearing nude mouse model. […] (n=12 for each treatment group for up to 30 days, and n=36 for the pooled untreated control group for up to 31 days). […] The subjects were housed in a barrier environment for the duration of the study. Body weight and tumor size (by caliper measurement) were collected on each subject 3 times per week for the duration of the study. Criteria for early termination included: death; loss of total body weight (TBW) equal to or greater than 20%; tumor size equal to or greater than 2 cm^3.
# PC3 cells = experiment: Internalization & Efflux Assay in PC3 cells; assay type: cell-based, human; settings: for Internalisation (40 minutes): 40 min at 37° C., Lu-177 complexes (125I-BBN as comparator); for Efflux (2 h): percent efflux 2 h after loading 40 min at 37° C., Lu-177 complexes
# Experimental: • These studies were conducted in a 96-well plate. […] Incubations were stopped by the addition of 200 μl of ice-cold binding buffer. Plates were washed twice with binding buffer. To remove surface-bound radioligand, the cells were incubated with 0.2M acetic acid (in saline), pH 2.8 for 2 min. Plates were centrifuged and the acid wash media were collected to determine the amount of radioactivity which was not internalized. The cells were collected to determine the amount of internalized ^125I-BBN, and all samples were analyzed in the gamma counter. Data for the internalization assay was normalized by comparing counts obtained at the various time points with the counts obtained at the final time point (T40 min). • For the efflux studies, after loading the PC3 cells with ^125I-BBN or radiolabeled compounds of the invention for 40 min at 37° C., the unbound material was filtered, and the % of internalization was determined as above. The cells were then resuspended in binding buffer at 37° C. for up to 3 h.
# [2] = system: PC3 tumor-bearing nude mouse model; experiment: Radiotherapy Long Term Efficacy Study; assay type: in vivo; settings: 177Lu labeled, 30 mCi/kg, up to 120 days; vs same controls; FIG. 15B
# [3] = system: PC3 tumor-bearing nude mice; assay type: in vivo, mouse; settings: in words; for uptake in the tumor compared with control: 1 and 24 h
# Experimental: • Low dose pharmacokinetic studies (e.g., biodistribution studies) were performed using the below-identified compounds of the invention in xenografted, PC3 tumor-bearing nude mice ([Ncr]-Foxn1). In all studies, mice were administered 100 μL of ^177Lu-labeled test compound at 200 μCi/kg, i.v., with a residence time of 1 and 24 h per group (n=3-4). Tissues were analyzed in an LKB 1282 CompuGamma counter with appropriate standards.
# [4] = Table 10, class cut off 10x the IC50 of [Tyr4]-BBN with 125I-NMB on C6 cells, yes or dash
# [5] = 177Lu labeled, 30 mCi/kg, up to 30 days, vs untreated and vs DO3A-monoamide-Aoc-QWAVGHLM-NH2 control, FIG. 15A
compound,measurement,setting,value
"N-[4-[[[[4,7,10-Tris(carboxymethyl)-1,4,7,10tetraazacyclododec-1-yl]acetyl]glycyl]amino]3-chlorobenzoyl]L-glutaminyl-L-tryptophyl-1-alanyl-L-valyl-glycyl-L-histidyl-L-leucyl-L-methioninamide [Compound L241]",GRP-R & NMB-R (binds both with similar affinity),NMB-R; [4],yes
"N-[(3β,5β,12α)-3-[[[[[4,7,10-Tris(carboxymethyl)-1,4,7,10-tetraazacyclododec-1-yl]acetyl]amino]acetyl]amino]-[4′-Amino-2′-methyl biphenyl-4-carboxyl]-L-glutaminyl-L-tryptophyl-L-alanyl-L-valyl-glycyl-L-histidyl-L-leucyl-L-methioninamide [Compound L206]",GRP-R & NMB-R (binds both with similar affinity),NMB-R; [4],yes
"N-[(3β,5β,12α)-3-[[[4,7,10-Tris(carboxymethyl)-1,4,7,10-tetraazacyclododec-1-yl]acetyl]amino]-glycyl-4-aminobenzoyl-L-leucyl-L-tryptophyl-L-alanyl-L-valinyl-glycyl-L-serinyl-L-phenylalanyl-L-methioninamide [Compound L225]",competition / activity at GRP-R,GRP-R,reduces competition at the GRP-R
"N-[(3β,5β,12α)-3-[[[4,7,10-Tris(carboxymethyl)-1,4,7,10-tetraazacyclododec-1-yl]acetyl]amino]-4-aminobenzoyl-glycyl-L-glutaminyl-L-tryptophyl-L-alanyl-L-valyl-glycyl-L-histidyl-L-leucyl-L-methioninamide [Compound L204]",Receptor preference in words (cell spanning the GRP-R and GRP-R & NMB-R columns),NMB-R; Table 10,preference to NMB-R
same,GRP-R & NMB-R (binds both with similar affinity),NMB-R; [4],yes
same,receptor subtype preference (GRP-R / NMB-R),NMB-R,selective affinity to NMB-R; also recorded: favor the NMB subtype
"N,N-dimethylglycine-Ser-Cys(Acm)-Gly-N-4-aminoethyl-N-1-piperazineacetic acid-Ser-BBN(7-14) [Compound L28]",GRP-R & NMB-R (binds both with similar affinity),NMB-R; [4],yes
"N-[(3β,5β,12α)-3-[[[4,7,10-Tris(carboxymethyl)-1,4,7,10-tetraazacyclododec-1-yl]acetyl]amino]-glycyl-4-aminobenzoyl-L-glutaminyl-L-tryptophyl-L-alanyl-glycyl-L-histidyl-L-phenylalanyl-L-leucinamide [Compound L224]",competition / activity at GRP-R,GRP-R,complete loss of binding
"N-[(3β,5β,12α)-3-[[[[[4,7,10-Tris(carboxymethyl)-1,4,7,10-tetraazacyclododec-1-yl]acetyl]amino]acetyl]amino]-4-hydrazinobenzoyl-L-glutaminyl-L-tryptophyl-L-alanyl-L-valyl-glycyl-L-histidyl-L-leucyl-L-methioninamide [Compound L202]",GRP-R & NMB-R (binds both with similar affinity),NMB-R; [4],yes
"N-[(3β,5β,12α)-3-[[[4,7,10-Tris(carboxymethyl)-1,4,7,10-tetraazacyclododec-1-yl]acetyl]amino]-glycyl-4-aminobenzoyl-L-glutaminyl-L-tryptophyl-L-alanyl-L-valyl-glycyl-L-histidyl-L-phenylalanyl-L-methioninamide [Compound L228]",competition / activity at GRP-R,GRP-R,maintains GRP-R activity
"N,N-dimethylglycine-Ser-Cys(Acm)-Gly-N-1-piperazineacetic acid-8-amino-3,6-dioxaoctanoic acid-BBN(7-14) [Compound L36]",GRP-R & NMB-R (binds both with similar affinity),NMB-R; [4],yes
"N,N-dimethylglycine-Ser-Cys(Acm)-Gly-Asp-8-amino-3,6-dioxaoctanoic acid-BBN(7-14) [Compound L3]",GRP-R & NMB-R (binds both with similar affinity),NMB-R; [4],yes
"N-[4-[[[[[4,7,10-Tris(carboxymethyl)-1,4,7,10-tetraazacyclododec-1-yl]acetyl]amino]acetyl]amino]benzoyl]-L-glutaminyl-L-tryptophyl-L-alanyl-L-valyl-glycyl-L-histidyl-L-leucyl-L-methioninamide [Compound L70]",survival,"[1]; mouse, in vivo",increased survival
same,Internalisation (40 minutes),PC3 cells,70%
same,Efflux (2 h),PC3 cells,12%
same,GRP-R & NMB-R (binds both with similar affinity),NMB-R; [4],yes
same,receptor subtype preference (GRP-R / NMB-R),NMB-R,dual affinity
same,survival,[2],significantly increased survival
"CSCC[C@H](NC(=O)[C@H](CC(C)C)NC(=O)[C@H](Cc1c[nH]cn1)NC(=O)CNC(=O)[C@@H](NC(=O)[C@H](C)NC(=O)[C@H](Cc1c[nH]c2ccccc12)NC(=O)[C@H](CCC(N)=O)NC(=O)CC[C@@H](C)[C@H]1CC[C@H]2[C@@H]3CC[C@@H]4C[C@@H](NC(=O)CNC(=O)CN5CCN(CC(=O)O)CCN(CC(=O)O)CCN(CC(=O)O)CC5)CC[C@]4(C)[C@H]3C[C@H](O)[C@]12C)C(C)C)C(N)=O [Compound L63, N-[(3β,5β,12α)-3-[[[[[4,7,10-Tris(carboxymethyl)-1,4,7,10-tetraazacyclododec-1-yl]acetyl]amino]acetyl]amino]-12-hydroxy-24-oxocholan-24-yl]-L-glutaminyl-L-tryptophyl-L-alanyl-L-valyl-glycyl-L-histidyl-L-leucyl-L-methioninamide]",survival,[1]; [5],increased survival
same,uptake in the mouse pancreas compared with control,[3],much higher
same,uptake in the tumor compared with control,[3],high tumour uptake
same,"distribution of radioactivity in the blood, liver and kidneys compared with control",[3]; vs DO3A-monoamide-Aoc-QWAVGHLM-NH2,increased blood and liver values at early times
same,Internalisation (40 minutes),PC3 cells,64%
same,Efflux (2 h),PC3 cells,0%
same,GRP-R & NMB-R (binds both with similar affinity),NMB-R; [4],yes
same,receptor subtype preference (GRP-R / NMB-R),NMB-R,dual affinity for both GRP-R and NMB-R
DO3A-Gly-Abz-4-Gln-Trp-Ala-Val-Gly-His-Phe-Leu-NH2 [Compound L300],competition / activity at GRP-R,GRP-R,high activity at the GRP-R
"N-[[4,7,10-Tris(carboxymethyl)-1,4,7,10-tetraazacyclododec-1-yl]acetyl]glycyl-4-piperidinecarbonyl-L-glutaminyl-L-tryptophyl-L-alanyl-L-valyl-glycyl-L-histidyl-L-leucyl-L-methioninamide [Compound L74]",GRP-R & NMB-R (binds both with similar affinity),NMB-R; [4],yes
DO3A-monoamide-N-4-aminoethyl-N-1-piperazineacetic acid-BBN(7-14) [Compound L89],GRP-R (preferentially binds GRP-R),NMB-R; [4],yes
same,receptor subtype preference (GRP-R / NMB-R),NMB-R,GRP-R selectivity
"CSCC[C@H](NC(=O)[C@H](CC(C)C)NC(=O)[C@H](Cc1c[nH]cn1)NC(=O)CNC(=O)[C@@H](NC(=O)[C@H](C)NC(=O)[C@H](Cc1c[nH]c2ccccc12)NC(=O)[C@H](CCC(N)=O)NC(=O)CC[C@@H](C)[C@H]1CC[C@H]2[C@@H]3[C@H](O)C[C@@H]4C[C@@H](NC(=O)CNC(=O)CN5CCN(CC(=O)O)CCN(CC(=O)O)CCN(CC(=O)O)CC5)CC[C@]4(C)[C@H]3C[C@H](O)[C@]12C)C(C)C)C(N)=O [Compound L64, N-[(3β,5β,7α,12α)-3-[[[[[4,7,10-Tris(carboxymethyl)-1,4,7,10-tetraazacyclododec-1-yl]acetyl]amino]acetyl]amino]-7,12-dihydroxy-24-oxocholan-24-yl]-L-glutaminyl-L-tryptophyl-L-alanyl-L-valyl-glycyl-L-histidyl-L-leucyl-L-methioninamide]",survival,[1]; [5],increased survival
same,uptake in the mouse pancreas compared with control,[3],much higher
same,uptake in the tumor compared with control,[3],much higher
same,Internalisation (40 minutes),PC3 cells,69%
same,Efflux (2 h),PC3 cells,20%
same,GRP-R & NMB-R (binds both with similar affinity),NMB-R; [4],yes
same,receptor subtype preference (GRP-R / NMB-R),NMB-R,dual affinity for both GRP-R and NMB-R
same,survival,[2],significantly increased survival
DO3A-monoamide-8-amino-octanoic acid-BBN (7-14) [reference compound],Internalisation (40 minutes),PC3 cells,89%
same,Efflux (2 h),PC3 cells,28%
"N-[4-[[[[4,7,10-Tris(carboxymethyl)-1,4,7,10tetraazacyclododec-1-yl]acetyl]glycyl]amino]-3-methoxybenzoyl]-L-glutaminyl-L-tryptophyl-1-alanyl-L-valyl-glycyl-L-histidyl-L-leucyl-L-methioninamide [Compound L240]",receptor subtype preference (GRP-R / NMB-R),NMB-R,selective affinity to GRP-R
